Source: patent US20020094522A1, “Means and methods for monitoring non-nucleoside reverse transcriptase inhibitor antiretroviral therapy and guiding therapeutic decisions in the treatment of HIV/AIDS” (priority 2000, published 2002)
Entries after “also recorded” stand apart in the source; their conditions may differ.

How the values were obtained:
Type in all cases: cell-based, HIV-1
[1] = system: RTV-955 (patient sample 98-955); assay: Phenotypic susceptibility assay, RTV-955; details: RTV-955, patient-derived pool
Description: (§1) Transfections were performed using a calcium-phosphate precipitation procedure. […] Cell lysates were assayed for luciferase activity (FIG. 3).
(§2) The drug inhibition curves are shown in (FIG. 3).
(§3) A resistance test vector was constructed as described in Example 1 from a patient sample designated 98-955. This patient had been previously treated with nelfinavir (a PRI) Isolation of viral RNA and RT/PCR was used to generate a patient derived segment that comprised viral sequences coding for all of PR and aa 1-313 of RT. The PDS was inserted into an indicator gene viral vector to generate a resistance test vectors designated RTV-955. RTV-955 was then tested in a phenotypic assay to determine accurately and quantitatively the level of susceptibility to a panel of anti-retroviral drugs. […] An IC50 was determined for the resistance test vector pool for each drug tested. The pattern of susceptibility to all of the drugs tested was examined and compared to known patterns of susceptibility.

[2] = system: RTV-757 (patient sample 98-757); assay: Phenotypic susceptibility assay, RTV-757; details: RTV-757, same patient after additional 8 weeks of treatment
Description: as §1, §2
as §3, with “sample designated 98-1033. […] Isolation of” for “sample designated 98-955. This patient had been previously treated with nelfinavir (a PRI) Isolation of”, “to generate resistance test” for “to generate a resistance test”, “vectors designated RTV-1033 and RTV-757. RTV-1033 and RTV-757 were then tested” for “vectors designated RTV-955. RTV-955 was then tested”

[3] = system: RTV-1058 Clone 4 (K103N and Y188L); assay: Phenotypic susceptibility assay, RTV-1058 clone 4
Description: The resistance test vectors containing a functional luciferase gene cassette were constructed and host cells were transfected with the resistance test vector DNA. The resistant test vectors contained patient-derived reverse transcriptase and protease sequences that were either susceptible or resistant to the antiretroviral agents, such as nucleoside reverse transcriptase inhibitors, non-nucleoside reverse transcriptase inhibitors and protease inhibitors. […] The IC50 values were determined by plotting percent drug inhibition vs. log10 drug concentration.
Host cells were seeded in 10-cm-diameter dishes and were transfected several days after plating with resistance test vector plasmid DNA and the envelope expression vector. […] HIV capsid protein (p24) levels in the harvested cell culture media were determined by an EIA method as described by the manufacturer (SIAC; Frederick, Md.). […] The inhibitory effect of the drug was determined using the following equation: […]
A resistance test vector was constructed as described in Example 1 from a patient sample designated 98-1058. […] An IC50 was determined for the resistance test vector pool for each drug tested.

[4] = system: P225H-RTV (HIV reverse transcriptase P225H); assay: Phenotypic susceptibility assay, P225H-RTV; details: P225H mutation alone
Description: as §1, §2
(§4) Resistance test vectors were constructed containing the P225H mutation alone and in combination with other known drug resistance mutations (K103N, Y181C) known to modulate the HIV susceptibility to NNRTIs. […] (Sakar G and Sommar SS (1994) Biotechniques 8(4), 404-407). […] The pattern of phenotypic susceptibility to the NNRTI, delavirdine in the P225H-RTV was altered as compared to wild type.

[5] = system: RTV-268 (patient sample 97-268; P236L); assay: Phenotypic susceptibility assay, RTV-268; details: RTV-268 / patient 268
From the text: The resistance test vectors containing a functional luciferase gene cassette were constructed and host cells were transfected with the resistance test vector DNA. The resistant test vectors contained patient-derived reverse transcriptase and protease sequences that were either susceptible or resistant to the antiretroviral agents, such as nucleoside reverse transcriptase inhibitors, non-nucleoside reverse transcriptase inhibitors and protease inhibitors. The resistance test vector viral particles produced by transfecting the resistance test vector DNA into host cells, either in the presence or absence of protease inhibitors, were used to infect target host cells grown either in the absence of NRTI or NNRTI or in the presence of increasing concentrations of the drug. The amount of luciferase activity produced in infected target host cells in the presence of drug was compared to the amount of luciferase produced in infected target host cells in the absence of drug. Drug resistance was measured as the amount of drug required to inhibit by 50% the luciferase activity detected in the absence of drug (inhibitory concentration 50%, IC50). The IC50 values were determined by plotting percent drug inhibition vs. log10 drug concentration.
Host cells were seeded in 10-cm-diameter dishes and were transfected several days after plating with resistance test vector plasmid DNA and the envelope expression vector. Transfections were performed using a calcium-phosphate precipitation procedure. The cell culture media containing the DNA precipitate was replaced with fresh medium, from one to 24 hours, after transfection. Cell culture media containing resistance test vector viral particles was harvested one to four days after transfection and was passed through a […] filter before being stored at −80° C. HIV capsid protein (p24) levels in the harvested cell culture media were determined by an EIA method as described by the manufacturer (SIAC; Frederick, Md.). Before infection, target cells (293 and 293/T) were plated in cell culture media. Control infections were performed using cell culture media from mock transfections (no DNA) or transfections containing the resistance test vector plasmid DNA without the envelope expression plasmid. One to three or more days after infection the media was removed and cell lysis buffer (Promega) was added to each well. […] The inhibitory effect of the drug was determined using the following equation: […]
where RLUluc [drug] is the relative light unit of luciferase activity in infected cells in the presence of drug and RLUluc is the Relative Light Unit of luciferase activity in infected cells in the absence of drug. IC50 values were obtained from the sigmoidal curves that were generated from the data by plotting the percent inhibition of luciferase activity vs. the log10 drug concentration.
A resistance test vector was constructed as described in Example 1 from a patient sample designated 97-268. […] Isolation of viral RNA and RT/PCR was used to generate a patient derived segment that comprised viral sequences coding for all of PR and amino acids 1-313 of RT. The patient derived segment was inserted into a indicator gene viral vector to generate a resistance test vector designated RTV-268. RTV-268 was then tested using the phenotypic susceptibility assay to determine accurately and quantitatively the level of susceptibility to a panel of anti-retroviral drugs. […] An IC50 was determined for each drug tested. Susceptibility of the patient virus to each drug was examined and compared to the susceptibility of a reference virus. […] The sample was examined further for genotypic changes associated with the pattern of susceptibility.

[6] = system: RTVs containing P225H plus K103N, Y181C or both (K103N+Y181C); assay: Phenotypic susceptibility assay, P225H added to K103N, Y181C or both; details: P225H with K103N
Description: as §1, §2, §4

[7] = system: RTVs containing P236L plus K103N, Y181C or both (K103N+Y181C); assay: Phenotypic susceptibility assay, P236L added to K103N, Y181C or both; details: P236L with K103N
Description: as §1, §2
Resistance test vectors were constructed containing the P236L mutation alone and in combination with other known drug resistance mutations (K103N, Y181C) that are known to modulate the susceptibility of HIV-1 to NNRTIs. […] The P236L mutation was also introduced into a RTV containing mutations at K103N, Y181C or both (K103N+Y181C).

Row | SMILES | fold decrease in susceptibility (IC50) [1] [fold] | fold decrease in susceptibility (IC50) [2] | fold loss of susceptibility (IC50) [3] | change in susceptibility compared to wild type control RTV [4] | susceptibility/resistance compared to reference virus [5] | change in susceptibility compared to the corresponding RTV lacking P225H [6] | change in susceptibility compared to the corresponding RTV lacking P236L [7]
1 | CC(C)Nc1cccnc1N1CCN(C(=O)c2cc3cc(NS(C)(=O)=O)ccc3[nH]2)CC1 [delavirdine] | 4 | 10 fold | 85 fold | more susceptible to delavirdine than the wild type control RTV | resistant to delavirdine; also recorded: phenotypic resistance to delavirdine | more susceptible to inhibition by delavirdine if the P225H mutation was present | less susceptible (more resistant) to delavirdine if the P236L mutation was present
2 | Cc1ccnc2c1NC(=O)c1cccnc1N2C1CC1 [nevirapine] | 530 | greater than 800 fold | greater than 800 fold | No significant change in nevirapine susceptibility | no change in nevirapine susceptibility; also recorded: nevirapine susceptibility was the same as wild type | did not significantly change nevirapine susceptibility | did not significantly alter nevirapine susceptibility
